Results from publication PMC3638593, “1,4-dihydroxy-2-naphthoic Acid Induces Apoptosis in Human Keratinocyte: Potential Application for Psoriasis Treatment” (Evidence-based Complementary and Alternative Medicine : eCAM, 2013).
Values joined by “and” are separate entries in the source; they are usually repeats but may differ in a detail not shown here. Identical values can stand only once. Like-named read-outs stand apart in the source and are kept apart here.

Columns and labels:
Format in all cases: cell-based, human
HaCaT cells [1] = assay: Hoechst 33342 fluorescent staining for morphological evaluation; conditions: 72 h
Protocol: After DHNA treatment, HaCaT cells were fixed in 4% paraformaldehyde for 30 min, washed with phosphate-buffered saline (PBS) and then stained with 2 μg/mL Hoechst 33342 (Molecular Probes, Eugene, OR, USA) for 15 min at room temperature in the dark. Morphology was evaluated using an Axiophot fluorescence microscope (Carl Zeiss, Oberkochen, Germany).

NCTC 2544 cells = assay: Proliferation assay (sulphorhodamine B) on NCTC 2544; conditions: for IC50: Homo sapiens, read-out: IC50 on growth
Excerpt: The spontaneously immortalized human epidermal keratinocyte HaCaT cells were purchased from China Centre for Type Culture Collection, Wuhan, China. The human foreskin fibroblast Hs-68 cells were purchased from the American Type Culture Collection (Manassas, VA, USA). The human undifferentiated keratinocyte NCTC 2544 cells were provided by Interlab Cell Line Collection (Genoa, Italy) and the immortalized human epidermal melanocyte PIG1 cells were a gift from Dr Caroline Le Poole (Loyola University Chicago, Maywood, IL, USA). HaCaT and Hs-68 cells were maintained in DMEM, NCTC 2544 in RPMI 1640 and PIG1 cells in Medium 254 with Human Melanocyte Growth Supplement-2, respectively. All cells were cultured in complete medium containing 10% FBS, 100 μg/mL of streptomycin, and 100 U/mL of penicillin (Gibco Laboratories) at 37°C in a humidified atmosphere of 5% CO2. Cell culture experiments were carried out at 60–80% confluent.
The ethyl acetate extract (EA) of Rubia cordifolia L. was isolated as described. 1,4-dihydroxy-2-naphthoic acid (98%), dithranol (≥90%), and EA were dissolved in DMSO as stock. All cells were seeded and treated with various concentrations of DHNA, dithranol or EA. After treatment, cells were fixed with cold 50% trichloroacetic acid and incubated 1 h at 4°C. Cell was then washed with deionized water, air-dried, and stained with 0.4% (w/v) sulphorhodamine B for 30 min at room temperature. Unincorporated dye was removed with 1% acetic acid wash and the cell was again air-dried. Incorporated dye was then solubilized in 10 mM Tris base and absorbance was measured at 565/690 nm using a Sunrise microplate spectrophotometer (Tecan, Switzerland). IC50 were determined using GraphPad Prism 5.0 (GraphPad Software, San Diego, CA, USA).

HaCaT cells [2] = assay: DNA fragmentation, Cell Death Detection ELISAplus; conditions: 240 μM (49.01 μg/mL)
Protocol: After incubation of HaCaT cells with DHNA, subsequent experimental steps were following the protocol of the Cell Death Detection ELISA^plus (Roche Applied Science, Basel, Switzerland). Absorbance was measured at 405/490 nm by the Sunrise microplate spectrophotometer. Enrichment of mono- and oligonucleosomes (cytoplasmic histone-associated DNA fragments) into the cytoplasm was calculated as absorbance of treatment cells/absorbance of control (enrichment factor) which was used as a parameter of apoptosis.

[3] = tested on: AIF and endoG in HaCaT cells; assay: Immunofluorescence staining of AIF and endoG; conditions: 240 μM (49.01 μg/mL), 24 h
Protocol: HaCaT cells were first seeded on cover-slipped 6 well plates. After DHNA treatment, cells were washed three times with PBS and fixed in 1 : 1 acetone/methanol at −20°C for 10 min. Thereafter, cells were washed with PBS three times and then blocked for 15 min in blocking solution (1% BSA in PBS) at room temperature. After that, cells were incubated with either one of the following antibodies in blocking solution overnight at 4°C: apoptosis inducing factor, AIF or endonuclease G, and endoG. Cells were then washed with PBS three times and incubated with corresponding secondary antibody conjugated to Alexa Fluor 488 (Molecular Probes) in blocking solution in dark at room temperature for 1 h. After further washing with PBS for three times, the cover slips were then mounted on glass slides using the Vectashield mounting medium with DAPI (Vector Laboratories, Burlingame, CA). Stained cells were then visualized under the Nikon Ti-E inverted microscope (Nikon, Tokyo, Japan).

HaCaT cells [4] = assay: Cell cycle analysis (PI, flow cytometry); conditions: 24 h, Figure 5(a)
Protocol: HaCaT cells were treated with DHNA for 24 h, fixed with 75% ice-cold ethanol at 4°C for 1 h and stained with PI/RNase solution (BD Pharmingen) for 15 min at room temperature in the dark. Stained cells were analyzed using the FACSCanto flow cytometer immediately. Cell cycle distribution was calculated with ModFit LT 3.1 (Verity Software House, Topsham, ME, USA).

HaCaT cells [5] = assay: Annexin V/propidium iodide staining, flow cytometry; conditions: for viability at 30 µM / viability at 60 µM / viability at 120 µM / viability at 240 µM: Homo sapiens, HaCaT, read-out: viable cells (FITC−/PI−, lower left)
Protocol: After DHNA treatment, HaCaT cells were resuspended in annexin V binding buffer (10 mM HEPES, 140 mM NaCl, and 2.5 mM CaCl2, pH 7.4) and then incubated with FITC-conjugated annexin V (Biosource International, Inc., USA), and 0.5 μg/mL propidium iodide (PI) for 15 min at room temperature in the dark. Cells were analyzed on a FACSCanto flow cytometer (BD Biosciences, San Jose, CA, USA) immediately and then analyzed using WinMDI 2.9 (developed by Dr. J. Trotter, Scripps Institute, La Jolla, CA, USA). The total number of early (FITC+/PI−) and late (FITC+/PI+) apoptotic cells was assessed. In another experiment, HaCaT cells were preincubated with 40 μM pan-caspase inhibitor Z-VAD-FMK (BD Pharmingen, San Diego, CA, USA) for 1 h before exposure to DHNA.

For `O=C(O)c1cc(O)c2ccccc2c1O` [DHNA, 1,4-dihydroxy-2-naphthoic acid], the “nuclear morphology (Hoechst 33342)” value (HaCaT cells [1]; 120 μM (24.5 μg/mL)) was “light blue/white fluorescence was emitted from the nuclei of all cells”, the “nuclear fragmentation (Hoechst 33342)” value (HaCaT cells [1]; 30, 60 and 120 μM) was “nuclear fragmentation was also observed” and the “nuclear morphology (Hoechst 33342)” value (HaCaT cells [1]; 30 and 60 μM) was “chromatin condensation”. The IC50 (NCTC 2544 cells; NCTC 2544, incubation 48 h) was 81.4 µM and 16.6 µg/mL, the IC50 (NCTC 2544 cells; NCTC 2544, incubation 72 h) was 46.8 µM and 9.56 µg/mL and the “less potent than dithranol in inhibiting keratinocytes growth” value (NCTC 2544 cells; NCTC 2544, compared with dithranol) was ~ 12 times. For the same molecule, the “increase of DNA fragmentation compared with vehicle control” value (HaCaT cells [2]; 24 h) was “approximately 3.4 folds”, the “increase of DNA fragmentation compared with vehicle control” value (HaCaT cells [2]; 48 h) was ~5.2 folds and the “localization of AIF and endoG” value [3] was “translocated to the nucleus”. The G0/G1 cell population (HaCaT cells [4]; 60 μM (12.25 μg/mL)) was 39.3%, the G2/M phase cells (HaCaT cells [4]; 60 μM (12.25 μg/mL)) was 12.4% and the G0/G1 cell population (HaCaT cells [4]; 120 μM (24.5 μg/mL)) was 51.0%. For the same molecule, the G2/M phase cells (HaCaT cells [4]; 120 μM (24.5 μg/mL)) was 9.4%, the S phase cells (HaCaT cells [4]; 120 μM (24.5 μg/mL)) was 39.6% and the sub-G0/G1 population (HaCaT cells [4]; 120 μM (24.5 μg/mL)) was 19.7%. For the same molecule, the “total apoptotic fraction (early plus late apoptotic cells)” value (“total apoptotic fraction” for short) (HaCaT cells [5]; 30 μM/6.13 μg/mL, 9 h) was 10.4%, the “total apoptotic fraction” value (HaCaT cells [5]; 30 μM/6.13 μg/mL, 24 h) was 13.7% and the “total apoptotic fraction” value (HaCaT cells [5]; 240 μM/49.01 μg/mL, 9 h) was 45.5%. The “total apoptotic fraction” value (HaCaT cells [5]; 240 μM/49.01 μg/mL, 24 h) was 89.7%, the viability at 30 µM (HaCaT cells [5]; 9 h) was 88.9% and the viability at 30 µM (HaCaT cells [5]; 24 h) was 85%. For the same molecule, the viability at 60 µM (HaCaT cells [5]; 9 h) was 86.2%, the viability at 60 µM (HaCaT cells [5]; 24 h) was 77.5% and the viability at 120 µM (HaCaT cells [5]; 9 h) was 81.8%. For the same molecule, the viability at 120 µM (HaCaT cells [5]; 24 h) was 50.2%, the viability at 240 µM (HaCaT cells [5]; 9 h) was 44.3% and the viability at 240 µM (HaCaT cells [5]; 24 h) was 8.8%.
